Measurements: patent US9961897B2, “Fungicidal pyrazoles” (E. I. DU PONT DE NEMOURS AND COMPANY, priority 2013, dated 2018)
Marks after values point to notes of the source that are not given here.

Tests used:
Format in all cases: in vivo
[1] = test system: Puccinia recondita f. sp. tritici; assay: Test A: wheat leaf rust, preventive spray on wheat seedlings, visual disease rating; conditions: 100 = 100% disease control, 0 = no control
Excerpt: (§1) General protocol for preparing test suspensions for Tests A-E: the test compounds were first dissolved in acetone in an amount equal to 3% of the final volume and then suspended at the desired concentration (in ppm) in acetone and purified water (50/50 mix by volume) containing 250 ppm of the surfactant Trem® 014 (polyhydric alcohol esters). The resulting test suspensions were then used in Tests A-E. Spraying a 200 ppm test suspension to the point of run-off on the test plants was the equivalent of a rate of 800 g/ha.
The test suspension was sprayed to the point of run-off on wheat seedlings. The following day the seedlings were inoculated with a spore suspension of Puccinia recondita f. sp. tritici (the causal agent of wheat leaf rust) and incubated in a saturated atmosphere at 20° C. for 24 h, and then moved to a growth chamber at 20° C. for 6 days, after which time visual disease ratings were made.
(§2) Results for Tests A-E are given in Table A. In the Table, a rating of 100 indicates 100% disease control and a rating of 0 indicates no disease control (relative to the controls). All results are for compounds tested at 200 ppm except where followed by an asterisk “*” which indicates the compound was tested at 250 ppm. A dash (-) indicates no test results.

[2] = test system: Botrytis cinerea; assay: Test C: tomato Botrytis, preventive spray on tomato seedlings, visual disease rating; conditions: 100 = 100% disease control, 0 = no control
Excerpt: as §1
The test suspension was sprayed to the point of run-off on tomato seedlings. The following day the seedlings were inoculated with a spore suspension of Botrytis cinerea (the causal agent of tomato Botrytis) and incubated in a saturated atmosphere at 20° C. for 48 h, and then moved to a growth chamber at 24° C. for 3 days, after which time visual disease ratings were made.
as §2

[3] = test system: Blumeria graminis f. sp. tritici; assay: Test D: wheat powdery mildew, preventive spray on wheat seedlings, visual disease rating; conditions: 100 = 100% disease control, 0 = no control
Excerpt: as §1
The test suspension was sprayed to the point of run-off on wheat seedlings. The following day the seedlings were inoculated with a spore dust of Blumeria graminis f. sp. tritici, also known as Erysiphe graminis f. sp. tritici (the causal agent of wheat powdery mildew) and incubated in a growth chamber at 20° C. for 8 days, after which time visual disease ratings were made.
as §2

[4] = test system: Septoria nodorum; assay: Test E: Septoria glume blotch, preventive spray on wheat seedlings, visual disease rating; conditions: 200 ppm test suspension sprayed to run-off on wheat seedlings; 100 = 100% disease control, 0 = no control
Excerpt: as §1
The test suspension was sprayed to the point of run-off on wheat seedlings. The following day the seedlings were inoculated with a spore suspension of Septoria nodorum (the causal agent of Septoria glume blotch) and incubated in a saturated atmosphere at 24° C. for 48 h, and then moved to a growth chamber at 20° C. for 9 days, after which time visual disease ratings were made.
as §2

[5] = test system: Septoria tritici; assay: Test B: wheat leaf blotch, preventive spray on wheat seedlings, visual disease rating; conditions: 100 = 100% disease control, 0 = no control
Excerpt: as §1
The test suspension was sprayed to the point of run-off on wheat seedlings. The following day the seedlings were inoculated with a spore suspension of Septoria tritici (the causal agent of wheat leaf blotch) and incubated in a saturated atmosphere at 24° C. for 48 h, and then moved to a growth chamber at 20° C. for 19 days, after which time visual disease ratings were made.
as §2

[6] = 200 ppm test suspension sprayed to run-off on wheat seedlings
[7] = 200 ppm test suspension sprayed to run-off on tomato seedlings
[8] = 250 ppm (asterisk) test suspension sprayed to run-off on wheat seedlings
[9] = 250 ppm (asterisk) test suspension sprayed to run-off on tomato seedlings

Compound	Test A disease control rating [1, 6] [%]	Test C disease control rating [2, 7] [%]	Test D disease control rating [3, 6] [%]	Test E disease control rating [4] [%]	Test B disease control rating [5, 6] [%]	Test D disease control rating [3, 8]	Test A disease control rating [1, 8]	Test B disease control rating [5, 8]	Test C disease control rating [2, 9]
Cc1nn(C)c(-c2c(F)cc(/C=C/C3CC3)cc2F)c1C(O)c1ccc(F)cc1Cl (stereo not drawn) [Compound 1]	68	0	98	0	–	–	–	–	–
Cc1nn(C)c(-c2c(F)cc(C#CC3CC3)cc2F)c1C(O)c1ccc(F)cc1Cl (stereo not drawn) [Compound 2]	95	98	98	100	–	–	–	–	–
Cc1nn(C)c(-c2c(F)cc(-n3cccn3)cc2F)c1C(O)c1ccc(F)cc1Cl (stereo not drawn) [Compound 3, α-(2-chloro-4-fluorophenyl)-5-[2,6-difluoro-4-(1H-pyrazol-1-yl)phenyl]-1,3-dimethyl-1H-pyrazole-4-methanol]	68	59	81	98	–	–	–	–	–
Cc1nn(C)c(-c2c(F)cc(-n3ccc(C(F)(F)F)n3)cc2F)c1C(O)c1ccc(F)cc1Cl (stereo not drawn) [Compound 4]	0	0	0	0	–	–	–	–	–
C#CCOc1cc(F)c(-c2c(C(O)c3ccc(F)cc3Cl)c(C)nn2C)c(F)c1 (stereo not drawn) [Compound 5]	100	98	99	–	99	–	–	–	–
C=CCOc1cc(F)c(-c2c(C(O)c3ccc(F)cc3Cl)c(C)nn2C)c(F)c1 (stereo not drawn) [Compound 6]	99	99	95	–	99	–	–	–	–
Cc1nn(C)c(-c2c(F)cc(C3CO3)cc2F)c1C(O)c1ccc(F)cc1Cl (stereo not drawn) [Compound 8]	90	30	27	0	95	–	–	–	–
Cc1nn(C)c(-c2c(F)cc(OCCC(C)C)cc2F)c1C(O)c1ccc(F)cc1Cl (stereo not drawn) [Compound 9, α-(2-chloro-4-fluorophenyl)-5-[2,6-difluoro-4-(3-methylbutoxy)phenyl]-1,3-dimethyl-1H-pyrazole-4-methanol]	9	0	–	0	87	21* %	–	–	–
Cc1nn(C)c(-c2c(F)cc(OCC3CC3)cc2F)c1C(O)c1ccc(F)cc1Cl (stereo not drawn) [Compound 10, α-(2-chloro-4-fluorophenyl)-5-[4-(cyclopropylmethoxy)-2,6-difluorophenyl]-1,3-dimethyl-1H-pyrazole-4-methanol]	99	12	94	100	96	–	–	–	–
Cc1nn(C)c(-c2c(F)cc(/C=N/O)cc2F)c1C(O)c1ccc(F)cc1Cl (stereo not drawn) [Compound 11]	86	15	69	0	98	–	–	–	–
CCCCOc1cc(F)c(-c2c(C(O)c3ccc(F)cc3Cl)c(C)nn2C)c(F)c1 (stereo not drawn) [Compound 13]	0	0	98	–	98	–	–	–	–
CO/N=C/c1cc(F)c(-c2c(C(O)c3ccc(F)cc3Cl)c(C)nn2C)c(F)c1 (stereo not drawn) [Compound 14]	100	39	95	–	99	–	–	–	–
Cc1nn(C)c(-c2c(F)cc(OCC3CCCO3)cc2F)c1C(O)c1ccc(F)cc1Cl (stereo not drawn) [Compound 15]	–	–	–	–	–	95* %	98* %	100* %	98* %
Cc1nn(C)c(-c2c(F)cc(OCC3OCCO3)cc2F)c1C(O)c1ccc(F)cc1Cl (stereo not drawn) [Compound 19]	–	–	–	–	–	95* %	100* %	99* %	100* %
